According to patent publication US8835506B2, “Methods and related compositions for the treatment of cancer” (STC.UNM, priority 2008, dated 2014):
Entries after “also recorded” stand apart in the source; their conditions may differ.

Experiments:
[1] = cited from earlier work
[2] = in vivo; cited from earlier work
[3] = test system: PC3 androgen-independent human prostate cancer cells; assay: Cell death by trypan blue uptake; format: cell-based
Experimental: (§1) Cell Viability Assays: Two assays were used to determine cell viability; propidium iodide exclusion with flow cytometry and trypan blue exclusion with hemacytometry. Cells were treated with astemizole at the indicated concentrations for 24 to 96 hours prior to viability analysis. For propidium iodide cell viability determinations, cells were removed from the dishes with 0.05% trypsin. All cell culture medium was collected for the analysis in order to include any cells that may have released from the plate during the incubation period. Propidium iodide was added at a final concentration of 2 μg/ml and cells were analyzed on a Becton Dickinson FACScan flow cytometer. For trypan blue dye exclusion studies, all cell culture medium and cells removed by trypsinization were collected as above. An aliquot of these cells was re-suspended in 0.4% trypan blue. Both viable and non-viable cell counts were obtained by manual counting using a hemacytometer and light microscopy.

[4] = cited from earlier work; remark: listed apart in the source
LNCaP cells [5] = assay: HyperCyt high-throughput flow cytometry, side scatter as endpoint for intracellular granularity; cell death seen as adherent cells becoming non-adherent; format: cell-based, human
Experimental: HyperCyt and High-throughput Data Analysis: The HyperCyt® cytometry analysis system interfaces a flow cytometer and an autosampler. While the sampling probe moves from well to well, a peristaltic pump sequentially aspirates a small volume from each well. A bubble of air, created by the continuously running pump, separates samples from individual wells. Sample and bubble volumes are determined by the time the sampling probe is in a well (sip time) or in taking air while moving from well to well (up time). HyperCyt® sampling of a single 384-well plate is completed in less than 15 minutes. This system has been validated using cell-based high-throughput endpoint assays for ligand binding, surface antigen expression, and immunophenotyping.
The air-bubble separated samples, collected by HyperCyt®, are delivered continuously to the cytometer. The data accumulates as a single, time-resolved file with gaps corresponding to air-bubbles. Both forward and side light scattering properties of treated LNCaP cells were measured using a 488 nm laser. Time-resolved data were analyzed by proprietary software (IDLQuery) set to search for 384 separate data clusters. Data from negative (0.1% DMSO) replicate wells were pooled and used to set gates that define granularity in vehicle-treated LNCaP cells. […] A gate is set reflecting this distinction that is then applied to each data cluster. These values are automatically exported to a Microsoft Excel spreadsheet template that calculates percent side scatter shift in individual treated samples.
(§2) Microscopic and Flow Cytometric Scatter Analysis: Light microscopy images of prostate cancer cells in culture were collected using an Olympus IX70 inverted microscope and a 20× objective. Flow cytometric analysis of forward scatter (FSC) and side scatter (SSC) were preformed using the UNM Shared Flow Cytometry Resource on a Cytomation Mo Flo, an Epics Elite, a Becton Dickinson FACScan, or a Becton Dickinson FACS Calibur.

[6] = rare cases, patients exceeding recommended doses; cited from earlier work
[7] = test system: 22Rv1 prostate cancer cells; assay: Viability by trypan blue exclusion, astemizole alone or with docetaxel or radiation; format: cell-based, human; parameters: key to action determined with combination therapy: &: Additive action determined with combination therapy.; #: Synergistic action determined with combination therapy; details: for level of cell killing in combination: 24 hours
Experimental: as §1
Compounds according to the present invention may also function as radiosensitizers in addition to their anticancer activity. A study was performed showing prostate cancer cell killing actions of astemizole in combination with other therapeutic interventions. Astemizole alone produced a decrease in 22Rv1 prostate cancer cell viability with 8 μM 24 hours after treatment. […] This is true of the other agents which are described herein.

[8] = test system: LC3 II band in CWRv22 cells; assay: LC3 II band induction (autophagy marker); format: cell-based, human; details: 10 μM AST, 6 hours
PC3 cells [9] = assay: Hypodiploid population by propidium iodide incorporation and flow cytometry (apoptosis hallmarks); format: cell-based, human
From the text: Multiple mechanisms could account for the cell death observed in cancer cells from treatment with AST. […] Thus, administering the agents identified above that induce intracellular granularity in cancer cells may produce cell death through an autophagic mechanism.

[10] = test system: LNCaP human prostate cancer cells; assay: Cytotoxicity of AST in culture; format: cell-based
Experimental: as §1

prostate cancer cells = assay: Cell death of human cancer cells cultured with AST; format: cell-based
Experimental: as §1

PC3 cells [11] = assay: Cell proliferation assay (CyQUANT NF); format: cell-based, human; details: over a 4 day period
Experimental: (§3) Cell Proliferation Assay: To determine the number of proliferating cells after astemizole treatment, cells were seeded in 96-well tissue culture plates at 5,000 cells per well in 100 uL of DMEM/FCS. Two days after plating, cells were treated with astemizole at the indicated concentrations. Four days after treatment, cell proliferation was determined using the CyQUANT NF Cell Proliferation Assay Kit (Invitrogen, Carlsbad, Calif.) according to the kit instructions.

LAPC4 cells = assay: Cell proliferation assay (CyQUANT NF); format: cell-based, human; details: FIG. 7, 4 days
Experimental: as §3

DU145 cells = assay: Cell proliferation assay (CyQUANT NF); format: cell-based, human; details: FIG. 7, 4 days
Experimental: as §3

LNCaP cells [12] = assay: Cell proliferation assay (CyQUANT NF); format: cell-based, human; details: FIG. 7, 4 days
Experimental: as §3

skin cancer cells (SCC) = assay: Cell death by trypan blue uptake and hemacytometry; format: cell-based; details: AST up to 15 μM; listed as AST
Experimental: as §1

[13] = test system: CWRv22 human prostate cancer cells; assay: Cell death by trypan blue uptake and hemacytometry; format: cell-based
Experimental: as §1

[14] = test system: LAPC4 human prostate cancer cells; assay: Cell death by trypan blue uptake and hemacytometry; format: cell-based
Experimental: as §1

[15] = test system: PC3 human prostate cancer cells; assay: Light microscopy of intracellular granularity; format: cell-based; details: FIG. 3
From the text: as §2

advanced prostate cancer = advanced prostate cancer patients, on average; cited from earlier work

1-[(4-fluorophenyl)methyl]-N-[1-[2-(4-ethoxyphenyl)ethyl]-4-piperidyl]benzoimidazol-2-amine [Astemizole]
protein binding [1]: around 96%
crossing of the blood-brain barrier [2]: does not cross the blood-brain barrier
time to cell death after treatment [3]: ≤ 24 h
cell death ([3]; 10 μM AST, 48 hours): greater than 25%
cells dead ([3]; 15 μM AST, 48 hours): ~100%
absorption ([4]; from the gastrointestinal tract): rapidly absorbed
excretion ([4]; man): excreted as metabolites chiefly in the feces
half-life of the active ingredient ([4]; man): approximately 1 day
metabolism ([4]; man): extensively metabolized
cancer cell intracellular granularity by SSC flow cytometry (LNCaP cells [5]; FIG. 2, prostate cancer cells): significantly increase
dose at which cell death is seen (LNCaP cells [5]; FIG. 4 dose-response): 10 µM
dose range of AST-induced increases in intracellular granularity (LNCaP cells [5]; FIG. 4 dose-response): up to 3 μM
serious life-threatening cardiovascular adverse events [6]: QT-prolongation, torsades de pointes, and other ventricular arrhythmias
action determined with combination therapy ([7]; 2 μM astemizole + 10 nM docetaxel): &
% Viability, Mean (SD) ([7]; 2 μM astemizole + 10 nM docetaxel, 24 h, n = 3): 71.3%
action determined with combination therapy ([7]; 2 μM astemizole + 10 Gy radiation): &
% Viability, Mean (SD) ([7]; 2 μM astemizole + 10 Gy radiation, 24 h, n = 3): 63.5%
% Viability, Mean (SD) ([7]; 2 μM astemizole alone, 24 h, n = 3): 88.2 (4.9) %
action determined with combination therapy ([7]; 4 μM astemizole + 10 nM docetaxel): &
% Viability, Mean (SD) ([7]; 4 μM astemizole + 10 nM docetaxel, 24 h, n = 3): 74.4%
action determined with combination therapy ([7]; 4 μM astemizole + 10 Gy radiation): #
% Viability, Mean (SD) ([7]; 4 μM astemizole + 10 Gy radiation, 24 h, n = 3): 57.4%
% Viability, Mean (SD) ([7]; 4 μM astemizole alone, 24 h, n = 3): 90.6 (1.2) %
action determined with combination therapy ([7]; 8 μM astemizole + 10 nM docetaxel): &
% Viability, Mean (SD) ([7]; 8 μM astemizole + 10 nM docetaxel, 24 h, n = 3): 49.7%
action determined with combination therapy ([7]; 8 μM astemizole + 10 Gy radiation): #
% Viability, Mean (SD) ([7]; 8 μM astemizole + 10 Gy radiation, 24 h, n = 3): 22.2%
% Viability, Mean (SD) ([7]; 8 μM astemizole alone, 24 h, n = 3): 64.3 (8.1) %
cell viability, astemizole alone ([7]; 8 μM, 24 hours after treatment): decrease
level of cell killing in combination ([7]; 2, 4 and 8 μM astemizole with 10 nM docetaxel): additive levels of cell killing
level of cell killing in combination ([7]; 2, 4 and 8 μM astemizole with 10 gray radiation): synergistic levels of cell killing
LC3 II band associated with autophagic pathways [8]: induction of an LC3 II band
LC3 II band associated with autophagic pathways ([8]; listed as AST): increase in the LC3 II band
hallmarks of apoptotic cell death (hypodiploid population) (PC3 cells [9]): does not produce hallmarks of apoptotic cell death
cell killing by AST treatment [10]: dose-response to cell killing
concentration at which cells undergo rapid cell death (prostate cancer cells): above 5 μM
concentration inhibiting cell growth (PC3 cells [11]): ≥ 1 µM
prostate cancer cell growth (LAPC4 cells): significant reduction
prostate cancer cell growth (DU145 cells): significant reduction
prostate cancer cell growth (LNCaP cells [12]): significant reduction
cell death by AST treatment (skin cancer cells (SCC)): resistant to cell death; also recorded: not killed
cell killing by AST treatment [13]: dose-response to cell killing
cells dead ([13]; 6 μM AST, within 24 hours): 80%
cell killing by AST treatment [14]: dose-response to cell killing
cells dead ([14]; 6 μM AST, within 24 hours): 80%
intracellular granularity observed by light microscopy [15]: increase in intracellular granularity

CC(=O)O[C@@]12CO[C@@H]1C[C@H](O)[C@@]1(C)C(=O)[C@H](O)C3=C(C)[C@@H](OC(=O)[C@H](O)[C@@H](NC(=O)OC(C)(C)C)c4ccccc4)C[C@@](O)([C@@H](OC(=O)c4ccccc4)[C@H]21)C3(C)C [Taxotere]
prolongation of life (advanced prostate cancer): 2.5 months

CC(=O)O[C@@]12CO[C@@H]1C[C@H](O)[C@@]1(C)C(=O)[C@H](O)C3=C(C)[C@@H](OC(=O)[C@H](O)[C@@H](NC(=O)OC(C)(C)C)c4ccccc4)C[C@@](O)([C@@H](OC(=O)c4ccccc4)[C@H]21)C3(C)C [docetaxel]
viability at 0.01 µM ([7]; Homo sapiens, 22Rv1, 10 nM docetaxel alone (0 μM astemizole), 24 h, n = 3, read-out: % Viability, Mean (SD)): 80.7%
